Among the data in patent US12344603B2 (Genentech, Inc., priority 2020, dated 2025) are IC50 values, retold here.

SMILES strings stand for the structures. Where a name gives a salt, the structure may show the parent alone.

In general, IC50 refers to the point on the concentration scale where inhibition reaches its midpoint. Lower therefore signals higher potency.

The target in the assay is IRE1α (Homo sapiens (Human), UniProt O75460, D688N). As to the kind of experiment: IRE1α TR-FRET competition binding assay (IRE1α HTRF). To be noted: TR-FRET competition binding to kinase domain of IRE1α. The method in brief: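 Kinase domain (0.25 nM) pre-bound to 2 nM Eu anti-His antibody for 1 h at 4° C in HEPES pH 7.5/MgCl2/Brij 35/DTT/gamma globulin buffer, then mixed with compounds and 2 nM Alexa 647 ATP-competitive probe. 1 h at room temperature; probe displacement read as TR-FRET (Ex 347 nm, Em 665/615 nm).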
Sequence of IRE1α (O75460 547-977 D688N): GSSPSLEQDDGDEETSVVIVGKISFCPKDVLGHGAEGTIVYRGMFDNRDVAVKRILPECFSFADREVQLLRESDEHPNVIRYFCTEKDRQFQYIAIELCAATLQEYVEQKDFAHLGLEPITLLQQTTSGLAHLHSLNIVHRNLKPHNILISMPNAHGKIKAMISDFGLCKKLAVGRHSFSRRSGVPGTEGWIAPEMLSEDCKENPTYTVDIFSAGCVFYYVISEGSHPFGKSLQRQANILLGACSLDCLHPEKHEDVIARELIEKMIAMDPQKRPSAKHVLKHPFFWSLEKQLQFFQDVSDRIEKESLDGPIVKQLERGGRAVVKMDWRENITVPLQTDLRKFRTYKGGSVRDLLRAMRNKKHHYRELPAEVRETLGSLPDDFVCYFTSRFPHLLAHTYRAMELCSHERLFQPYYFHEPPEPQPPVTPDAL
Background: In TR-FRET formats the signal depends on donor and acceptor labels being close together.
In the case of `CC(C)n1c(=O)c(-c2ccc(NS(=O)(=O)Cc3ccc(F)cc3)c(F)c2)nc2cnc(N[C@H]3CC[C@H](N(C)CCF)CC3)nc21` [Compound 176, N-(2-Fluoro-4-(2-(((1r,4r)-4-((2-fluoroethyl)(methyl)amino)cyclohexyl)amino)-8-isopropyl-7-oxo-7,8-dihydropteridin-6-yl)phenyl)-1-(4-fluorophenyl)methanesulfonamide], the half-inhibitory concentration (IC50) worked out at 0.14 nM.
For `CC(C)n1c(=O)c(-c2ccc(NS(=O)(=O)CCC(F)(F)F)c(F)c2)nc2cnc(N[C@H]3CC[C@H](N(C)CCF)CC3)nc21` [Compound 177, 3,3,3-Trifluoro-N-(2-fluoro-4-(2-(((1r,4r)-4-((2-fluoroethyl)(methyl)amino)cyclohexyl)amino)-8-isopropyl-7-oxo-7,8-dihydropteridin-6-yl)phenyl)propane-1-sulfonamide], the IC50 was 0.24 nM.
The molecule `CC(C)n1c(=O)c(-c2ccc(NS(=O)(=O)c3ccccc3Cl)nc2)nc2cnc(N[C@H]3CC[C@H](N(C)C)CC3)nc21` [Compound 178, 2-Chloro-N-(5-(2-(((1r,4r)-4-(dimethylamino)cyclohexyl)amino)-8-isopropyl-7-oxo-7,8-dihydropteridin-6-yl)pyridin-2-yl)benzenesulfonamide] came in with an IC50 of 0.26 nM.
The value for `CC(C)n1c(=O)c(-c2ccc(NS(=O)(=O)CC3CC(F)(F)C3)c(F)c2)nc2cnc(N[C@H]3CC[C@H](N(C)CCF)CC3)nc21` [Compound 180, 1-(3,3-Difluorocyclobutyl)-N-(2-fluoro-4-(2-(((1r,4r)-4-((2-fluoroethyl)(methyl)amino)cyclohexyl)amino)-8-isopropyl-7-oxo-7,8-dihydropteridin-6-yl)phenyl)methanesulfonamide] was 0.29 nM.
`CC(C)n1c(=O)c(-c2ccc(NS(=O)(=O)CCN3CC(F)(F)C3)c(F)c2)nc2cnc(N[C@H]3CC[C@H](N(C)C)CC3)nc21` [Compound 182, 2-(3,3-Difluoroazetidin-1-yl)-N-(4-(2-(((1r,4r)-4-(dimethylamino)cyclohexyl)amino)-8-isopropyl-7-oxo-7,8-dihydropteridin-6-yl)-2-fluorophenyl)ethane-1-sulfonamide] yielded an IC50 of 0.87 nM.
The value for `CC(C)n1c(=O)c(-c2ccc(NS(=O)(=O)Cc3ccccc3)c(F)c2)nc2cnc(N[C@H]3CC[C@H](N(C)CCF)CC3)nc21` [Compound 183, N-(2-fluoro-4-(2-(((1r,4r)-4-((2-fluoroethyl)(methyl)amino)cyclohexyl)amino)-8-isopropyl-7-oxo-7,8-dihydropteridin-6-yl)phenyl)-1-phenylmethanesulfonamide] was 0.12 nM.
`CC(C)n1c(=O)c(-c2ccc(NS(=O)(=O)Cc3ccc(F)cc3)c(F)c2)nc2cnc(N[C@H]3CC[C@H](N(C)C)CC3)nc21` [Compound 184, N-(4-(2-(((1r,4r)-4-(dimethylamino)cyclohexyl)amino)-8-isopropyl-7-oxo-7,8-dihydropteridin-6-yl)-2-fluorophenyl)-1-(4-fluorophenyl)methanesulfonamide] yielded an IC50 of 0.25 nM.
The result for `CC(C)n1c(=O)c(-c2cc(F)c(NS(=O)(=O)Cc3ccccc3)c(F)c2F)nc2cnc(N[C@@H]3CNC[C@@H](F)C3)nc21` [Compound 185, 1-Phenyl-N-(2,3,6-trifluoro-4-(2-(((3S,5S)-5-fluoropiperidin-3-yl)amino)-8-isopropyl-7-oxo-7,8-dihydropteridin-6-yl)phenyl)methanesulfonamide] reads 0.17 nM.
The molecule `Cc1cc(NS(=O)(=O)CCC(F)(F)F)ncc1-c1nc2cnc(N[C@H]3CC[C@H](N(C)C)CC3)nc2n(C(C)C)c1=O` [Compound 186, N-(5-(2-(((1r,4r)-4-(Dimethylamino)cyclohexyl)amino)-8-isopropyl-7-oxo-7,8-dihydropteridin-6-yl)-4-methylpyridin-2-yl)-3,3,3-trifluoropropane-1-sulfonamide] had an IC50 of 0.95 nM.
The value for `CC(C)n1c(=O)c(-c2ccc(NS(=O)(=O)CCC(F)(F)F)nc2)nc2cnc(N[C@H]3CC[C@H](N(C)CCF)CC3)nc21` [Compound 187, 3,3,3-Trifluoro-N-(5-(2-(((1r,4r)-4-((2-fluoroethyl)(methyl)amino)cyclohexyl)amino)-8-isopropyl-7-oxo-7,8-dihydropteridin-6-yl)pyridin-2-yl)propane-1-sulfonamide] was 0.31 nM; that for `CC(C)n1c(=O)c(-c2ccc(NS(=O)(=O)c3ccccc3Cl)nc2)nc2cnc(N[C@H]3CC[C@H](N(C)CCF)CC3)nc21` [Compound 188, 2-Chloro-N-(5-(2-(((1r,4r)-4-((2-fluoroethyl)(methyl)amino)cyclohexyl)amino)-8-isopropyl-7-oxo-7,8-dihydropteridin-6-yl)pyridin-2-yl)benzenesulfonamide hydrochloride] was 0.27 nM.
The result for `CC(C)n1c(=O)c(-c2cc(F)c(NS(=O)(=O)CCC(F)(F)F)cc2F)nc2cnc(N[C@H]3CC[C@H](N(C)C)CC3)nc21` [Compound 189, N-(4-(2-(((1r,4r)-4-(dimethylamino)cyclohexyl)amino)-8-isopropyl-7-oxo-7,8-dihydropteridin-6-yl)-2,5-difluorophenyl)-3,3,3-trifluoropropane-1-sulfonamide] reads 0.49 nM; that for `CC(C)n1c(=O)c(-c2ccc(NS(=O)(=O)c3ccccc3C#N)c(F)c2)nc2cnc(N[C@H]3CC[C@H](N(C)C)CC3)nc21` [Compound 190, 2-Cyano-N-(4-(2-(((1r,4r)-4-(dimethylamino)cyclohexyl)amino)-8-isopropyl-7-oxo-7,8-dihydropteridin-6-yl)-2-fluorophenyl)benzenesulfonamide], 0.18 nM.
The value for `CC(C)n1c(=O)c(-c2ccc(NS(=O)(=O)c3cccnc3)c(F)c2)nc2cnc(N[C@H]3CC[C@H](N(C)C)CC3)nc21` [Compound 191, N-(4-(2-(((1r,4r)-4-(Dimethylamino)cyclohexyl)amino)-8-isopropyl-7-oxo-7,8-dihydropteridin-6-yl)-2-fluorophenyl)pyridine-3-sulfonamide hydrochloride] was 0.25 nM.
For `Cc1nc(NS(=O)(=O)c2ccccc2C#N)ccc1-c1nc2cnc(N[C@H]3CC[C@H](N(C)CCF)CC3)nc2n(C(C)C)c1=O` [Compound 194, 2-Cyano-N-(5-(2-(((1r,4r)-4-((2-fluoroethyl)(methyl)amino)cyclohexyl)amino)-8-isopropyl-7-oxo-7,8-dihydropteridin-6-yl)-6-methylpyridin-2-yl)benzenesulfonamide], the IC50 is 0.31 nM.
As for `Cc1nc(NS(=O)(=O)c2ccccc2Cl)ccc1-c1nc2cnc(N[C@H]3CC[C@H](N(C)CCF)CC3)nc2n(C(C)C)c1=O` [Compound 195, 2-Chloro-N-(5-(2-(((1r,4r)-4-((2-fluoroethyl)(methyl)amino)cyclohexyl)amino)-8-isopropyl-7-oxo-7,8-dihydropteridin-6-yl)-6-methylpyridin-2-yl)benzenesulfonamide], the IC50 came to 0.29 nM.
`CC(C)n1c(=O)c(-c2ccc(NS(=O)(=O)CCC(F)(F)F)c(F)c2F)cc2cnc(N[C@H]3CC[C@H](N(C)C)CC3)nc21` [Compound 197, N-(4-(2-(((1,4-trans)-4-(Dimethylamino)cyclohexyl)amino)-8-isopropyl-7-oxo-7,8-dihydropyrido[2,3-d]pyrimidin-6-yl)-2,3-difluorophenyl)-3,3,3-trifluoropropane-1-sulfonamide] yielded an IC50 of 0.26 nM.
`CC(C)n1c(=O)c(-c2ccc(NS(=O)(=O)CCC(F)(F)F)c(F)c2)cc2cnc(N[C@H]3CC[C@H](N4CCC4)CC3)nc21` [Compound 198, N-(4-(2-(((1,4-trans)-4-(Azetidin-1-yl)cyclohexyl)amino)-8-isopropyl-7-oxo-7,8-dihydropyrido[2,3-d]pyrimidin-6-yl)-2-fluorophenyl)-3,3,3-trifluoropropane-1-sulfonamide formate] returned an IC50 of 0.41 nM.
The value for `CC(C)n1c(=O)c(-c2ccc(NS(=O)(=O)CCC(F)(F)F)c(F)c2)cc2cnc(N[C@H]3CC[C@H](N4CCCC4)CC3)nc21` [Compound 199, 3,3,3-Trifluoro-N-(2-fluoro-4-(8-isopropyl-7-oxo-2-(((1,4-trans)-4-(pyrrolidin-1-yl)cyclohexyl)amino)-7,8-dihydropyrido[2,3-d]pyrimidin-6-yl)phenyl)propane-1-sulfonamide] was 0.25 nM; that for `CC(C)n1c(=O)c(-c2ccc(NS(=O)(=O)CCC(F)(F)F)c(F)c2)cc2cnc(NC3CCN(C)CC3)nc21` [Compound 200, 3,3,3-Trifluoro-N-(2-fluoro-4-(8-isopropyl-2-((1-methylpiperidin-4-yl)amino)-7-oxo-7,8-dihydropyrido[2,3-d]pyrimidin-6-yl)phenyl)propane-1-sulfonamide formate] was 20 nM.
The result for `CC(C)n1c(=O)c(-c2ccc(NS(=O)(=O)CCC(F)(F)F)c(F)c2)cc2cnc(NC3CCNCC3)nc21` [Compound 201, 3,3,3-Trifluoro-N-(2-fluoro-4-(8-isopropyl-7-oxo-2-(piperidin-4-ylamino)-7,8-dihydropyrido[2,3-d]pyrimidin-6-yl)phenyl)propane-1-sulfonamide] reads 8.7 nM.
In the case of `CC(C)n1c(=O)c(-c2ccc(NS(=O)(=O)CCC(F)(F)F)c(F)c2)cc2cnc(N[C@H]3CC[C@H](N(C)CC4COC4)CC3)nc21` [Compound 204, 3,3,3-Trifluoro-N-(2-fluoro-4-(8-isopropyl-2-(((1,4-trans)-4-(methyl(oxetan-3-ylmethyl)amino)cyclohexyl)amino)-7-oxo-7,8-dihydropyrido[2,3-d]pyrimidin-6-yl)phenyl)propane-1-sulfonamide], the IC50 came out at 1 nM.
Turning to `CCN(C)[C@H]1CC[C@H](Nc2ncc3cc(-c4ccc(NS(=O)(=O)CCC(F)(F)F)c(F)c4)c(=O)n(C(C)C)c3n2)CC1` [Compound 205, N-(4-(2-(((1,4-trans)-4-(Ethyl(methyl)amino)cyclohexyl)amino)-8-isopropyl-7-oxo-7,8-dihydropyrido[2,3-d]pyrimidin-6-yl)-2-fluorophenyl)-3,3,3-trifluoropropane-1-sulfonamide], the IC50 was 0.14 nM.
